{"source": "paper doi:10.1101/2024.12.16.628070v1", "about": "(bioRxiv, 2024)", "key": {"Enterobacter cloacae": {"system": "Enterobacter cloacae", "assay": "MIC, broth microdilution", "type": "cell-based"}, "Salmonella typhimurium": {"system": "Salmonella typhimurium", "assay": "MIC, broth microdilution", "type": "cell-based", "details": "strain ATCC 14028"}, "Escherichia coli": {"system": "Escherichia coli", "type": "cell-based"}, "Pseudomonas aeruginosa": {"system": "Pseudomonas aeruginosa", "assay": "MIC, broth microdilution", "type": "cell-based"}, "Morganella morganii": {"system": "Morganella morganii", "assay": "MIC, broth microdilution", "type": "cell-based"}, "Klebsiella pneumoniae": {"system": "Klebsiella pneumoniae", "assay": "MIC, broth microdilution", "type": "cell-based"}, "BAM complex": {"target": "BAM complex (Escherichia coli, UniProt P0A940)", "assay": "Differential Scanning Fluorimetry of BAM complex in nanodiscs", "type": "binding", "details": "read-out: increase in melting temperature (Tm)"}, "[1]": {"target": "BamA-β (transmembrane β-barrel domain of BamA) (Escherichia coli, UniProt P0A940, C690S/C700S)", "assay": "Surface Plasmon Resonance affinity to BamA-β in LDAO micelles", "type": "binding"}, "[2]": {"assay": "Single-dose pharmacokinetic study", "type": "in vivo", "details": "mouse, blood, ip, 50 mg/kg"}, "Shigella flexneri": {"system": "Shigella flexneri", "assay": "MIC, broth microdilution", "type": "cell-based", "details": "strain M90T"}, "Bacillus cereus": {"system": "Bacillus cereus", "assay": "MIC, broth microdilution", "type": "cell-based", "details": "strain ATCC 11778"}, "Staphylococcus aureus": {"system": "Staphylococcus aureus", "assay": "MIC, broth microdilution", "type": "cell-based"}, "E. coli M6": {"system": "E. coli M6", "type": "cell-based, Escherichia coli", "details": "after 5-7 days of passage"}, "Bacillus subtilis": {"system": "Bacillus subtilis", "assay": "MIC, broth microdilution", "type": "cell-based", "details": "strain ATCC 6633"}, "Acinetobacter baumannii": {"system": "Acinetobacter baumannii", "assay": "MIC, broth microdilution", "type": "cell-based"}, "Salmonella entereditis": {"system": "Salmonella entereditis", "assay": "MIC, broth microdilution", "type": "cell-based", "details": "strain ATCC 13076"}}, "note": "Where two headings read alike, the source gives them in different places."}
{"smiles": "CC(C)[C@@H]1NC(=O)[C@@H](N)Cc2c[nH]c3cc(ccc23)C(C(N)=O)[C@@H](C(=O)N[C@@H](C)C(=O)N[C@H]2Cc3cccc(c3)C(CCNC(=N)N)[C@@H](C(=O)N[C@H]3Cc4c[nH]c5cc(ccc45)C(CCCN)[C@@H](C(=O)N[C@@H](CO)C(=O)N[C@@H](Cc4ccccc4)C(=O)O)NC(=O)[C@H](CO)NC3=O)NC(=O)[C@H](C)NC2=O)NC1=O", "note": "(stereo partly shown) [Compound 2, xenorceptide A2]", "values": [{"measurement": "MIC", "setting": "Enterobacter cloacae; strain CRE1010", "result": 4, "unit": "µg/mL"}, {"measurement": "MIC", "setting": "Enterobacter cloacae; strain CRE1014", "result": 16, "unit": "µg/mL"}, {"measurement": "MIC", "setting": "Enterobacter cloacae; strain CRE1015", "result": 32, "unit": "µg/mL"}, {"measurement": "MIC", "setting": "Enterobacter cloacae; strain CRE1016", "result": 16, "unit": "µg/mL"}, {"measurement": "MIC", "setting": "Enterobacter cloacae; strain CRE1017", "result": 32, "unit": "µg/mL"}, {"measurement": "MIC", "setting": "Salmonella typhimurium", "result": 8, "unit": "µg/mL"}, {"measurement": "MIC", "setting": "Escherichia coli; K12 MG1655 BamA F394V, E435K, G443D", "result": 8, "unit": "µg/mL"}, {"measurement": "MIC", "setting": "Escherichia coli; K12 MG1655 BamA G429V, G807V", "result": 8, "unit": "µg/mL"}, {"measurement": "MIC", "setting": "Escherichia coli; MG1655 bamA G429C, generated in the present study", "result": 32, "unit": "µg/mL"}, {"measurement": "MIC", "setting": "Escherichia coli; strain 1 (darobactin-resistant MG1655 strain previously reported)", "result": 8, "unit": "µg/mL"}, {"measurement": "MIC", "setting": "Escherichia coli; strain 2 (darobactin-resistant MG1655 strain previously reported)", "result": 8, "unit": "µg/mL"}, {"measurement": "MIC", "setting": "Escherichia coli; strain ATCC 25922 (WT), broth microdilution, MHB, 18-20 h, 37 °C", "result": 2, "unit": "µg/mL"}, {"measurement": "MIC", "setting": "Escherichia coli; strain CRE1006, broth microdilution, MHB, 18-20 h, 37 °C", "result": 4, "unit": "µg/mL"}, {"measurement": "MIC", "setting": "Escherichia coli; strain K12 MG1655 (WT)", "result": 2, "unit": "µg/mL"}, {"measurement": "MIC", "setting": "Escherichia coli; strain M2, broth microdilution, MHB, 18-20 h, 37 °C, repeated three times", "result": 16, "unit": "µg/mL"}, {"measurement": "MIC", "setting": "Escherichia coli; strain M6, broth microdilution, MHB, 18-20 h, 37 °C", "result": 8, "unit": "µg/mL"}, {"measurement": "MIC", "setting": "Escherichia coli; strain M10, broth microdilution, MHB, 18-20 h, 37 °C", "result": 4, "unit": "µg/mL"}, {"measurement": "MIC", "setting": "Escherichia coli; strain M11, broth microdilution, MHB, 18-20 h, 37 °C", "result": 4, "unit": "µg/mL"}, {"measurement": "MIC", "setting": "Pseudomonas aeruginosa; strain ATCC 9027", "result": 64, "unit": "µg/mL"}, {"measurement": "MIC", "setting": "Pseudomonas aeruginosa; strain DM4150R", "result": 64, "unit": "µg/mL"}, {"measurement": "MIC", "setting": "Pseudomonas aeruginosa; strain DM23376", "result": ">64", "unit": "µg/mL"}, {"measurement": "MIC", "setting": "Pseudomonas aeruginosa; strain DR4877/07", "result": 64, "unit": "µg/mL"}, {"measurement": "MIC", "setting": "Pseudomonas aeruginosa; strain DR5790/07", "result": 64, "unit": "µg/mL"}, {"measurement": "MIC", "setting": "Morganella morganii; strain ATCC 25830", "result": 32, "unit": "µg/mL"}, {"measurement": "MIC", "setting": "Morganella morganii; strain CRE1001", "result": 32, "unit": "µg/mL"}, {"measurement": "MIC", "setting": "Klebsiella pneumoniae; strain ATCC 700603", "result": 8, "unit": "µg/mL"}, {"measurement": "MIC", "setting": "Klebsiella pneumoniae; strain CRE1007", "result": 8, "unit": "µg/mL"}, {"measurement": "MIC", "setting": "Klebsiella pneumoniae; strain CRE1008", "result": 8, "unit": "µg/mL"}, {"measurement": "MIC", "setting": "Klebsiella pneumoniae; strain CRE1011", "result": 8, "unit": "µg/mL"}, {"measurement": "MIC", "setting": "Klebsiella pneumoniae; strain CRE1012", "result": 8, "unit": "µg/mL"}, {"measurement": "MIC", "setting": "Klebsiella pneumoniae; strain M7", "result": 64, "unit": "µg/mL"}, {"measurement": "ΔTm at 20 µM", "setting": "BAM complex", "result": 3.8, "unit": "°C"}, {"measurement": "Kd", "setting": "[1]; KD, steady state response, SPR, BamA-β, concentration range 0.019 µM to 20 µM", "result": "~800", "unit": "nM"}, {"measurement": "koff", "setting": "[1]; read-out: kd (dissociation rate)", "result": 0.0673, "unit": "s⁻¹"}, {"measurement": "Tmax", "setting": "[2]", "result": 2, "unit": "h"}, {"measurement": "Cmax", "setting": "[2]; SD", "result": 60.7, "unit": "µg/mL"}, {"measurement": "half-life", "setting": "[2]; SD", "result": 2.4, "unit": "h"}, {"measurement": "MIC", "setting": "Shigella flexneri", "result": 2, "unit": "µg/mL"}, {"measurement": "MIC", "setting": "Bacillus cereus", "result": ">64", "unit": "µg/mL"}, {"measurement": "MIC", "setting": "Staphylococcus aureus; strain ATCC 29737", "result": ">64", "unit": "µg/mL"}, {"measurement": "MIC", "setting": "Staphylococcus aureus; strain ATCC 43300", "result": ">64", "unit": "µg/mL"}, {"measurement": "MIC after resistance development in serial passage", "setting": "E. coli M6", "result": 32, "unit": "µg/mL"}, {"measurement": "MIC", "setting": "Bacillus subtilis", "result": ">64", "unit": "µg/mL"}, {"measurement": "MIC", "setting": "Acinetobacter baumannii; strain ACBA1001", "result": 32, "unit": "µg/mL"}, {"measurement": "MIC", "setting": "Acinetobacter baumannii; strain ACBA1002", "result": 32, "unit": "µg/mL"}, {"measurement": "MIC", "setting": "Acinetobacter baumannii; strain ACBA1003", "result": 32, "unit": "µg/mL"}, {"measurement": "MIC", "setting": "Acinetobacter baumannii; strain ACBA1004", "result": 64, "unit": "µg/mL"}, {"measurement": "MIC", "setting": "Acinetobacter baumannii; strain ATCC 19606", "result": ">64", "unit": "µg/mL"}, {"measurement": "MIC", "setting": "Salmonella entereditis", "result": 8, "unit": "µg/mL"}]}
